From the supplement of paper PMC10307832

Columns and labels:
Assay in all cases: relative viability (nuclei count vs DMSO), 5 days (fraction); higher = more cells survive
ABC-1 = test system: ABC-1
Outline: (§1)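 Relative viability equals treated-well nuclei counts divided by vehicle-well nuclei counts. Counts came from 4× images of lung cancer cell lines grown in 1536-well plates for 5 days after pin-tool dosing on the day after seeding. Dosing used one drug alone or a fixed anchor-drug dose plus five library-drug doses (not always all listed) in √10 steps, and values are medians of duplicate plates.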

LCLC-103H = test system: LCLC-103H
Outline: as §1

NCI-H1944 = test system: NCI-H1944
Outline: as §1

NCI-H838 = test system: NCI-H838
Outline: as §1

NCI-H661 = test system: NCI-H661
Outline: as §1

NCI-H2085 = test system: NCI-H2085
Outline: as §1

NCI-H1666 = test system: NCI-H1666
Outline: as §1

SW 900 = test system: SW 900
Outline: as §1

NCI-H727 = test system: NCI-H727
Outline: as §1

BEN = test system: BEN
Outline: as §1

NCI-H596 = test system: NCI-H596
Outline: as §1

NCI-H1975 = test system: NCI-H1975
Outline: as §1

RERF-LC-KJ = test system: RERF-LC-KJ
Outline: as §1

CAL-12T = test system: CAL-12T
Outline: as §1

A-427 = test system: A-427
Outline: as §1

NCI-H520 = test system: NCI-H520
Outline: as §1

HARA = test system: HARA
Outline: as §1

LOU-NH91 = test system: LOU-NH91
Outline: as §1

NCI-H460 = test system: NCI-H460
Outline: as §1

NCI-H647 = test system: NCI-H647
Outline: as §1

NCI-H1734 = test system: NCI-H1734
Outline: as §1

NCI-H2126 = test system: NCI-H2126
Outline: as §1

NCI-H1651 = test system: NCI-H1651
Outline: as §1

## Cc1csc(=NC2CCCCC2)n1/N=C/c1ccc(O)c(O)c1O [MIM1] + Cc1cc(Nc2cc(N3CCN(C)CC3)nc(Sc3ccc(NC(=O)C4CC4)cc3)n2)n[nH]1 [Tozasertib] (partner 0.1 µM)
ABC-1; first compound 0.2 µM
  relative viability: 0.228
ABC-1; first compound 0.6325 µM
  relative viability: 0.182
ABC-1; first compound 2 µM
  relative viability: 0.21
ABC-1; first compound 6.325 µM
  relative viability: 0.206
ABC-1; first compound 20 µM
  relative viability: 0.194
LCLC-103H; first compound 0.2 µM
  relative viability: 0.609
LCLC-103H; first compound 0.6325 µM
  relative viability: 0.426
LCLC-103H; first compound 2 µM
  relative viability: 0.505
LCLC-103H; first compound 6.325 µM
  relative viability: 0.41
LCLC-103H; first compound 20 µM
  relative viability: 0.268
NCI-H1944; first compound 0.2 µM
  relative viability: 0.226
NCI-H1944; first compound 0.6325 µM
  relative viability: 0.288
NCI-H1944; first compound 2 µM
  relative viability: 0.235
NCI-H1944; first compound 6.325 µM
  relative viability: 0.231
NCI-H1944; first compound 20 µM
  relative viability: 0.143
NCI-H838; first compound 0.2 µM
  relative viability: 0.292
NCI-H838; first compound 0.6325 µM
  relative viability: 0.307
NCI-H838; first compound 2 µM
  relative viability: 0.249
NCI-H838; first compound 6.325 µM
  relative viability: 0.236
NCI-H838; first compound 20 µM
  relative viability: 0.236
NCI-H661; first compound 0.2 µM
  relative viability: 0.35
NCI-H661; first compound 0.6325 µM
  relative viability: 0.367
NCI-H661; first compound 2 µM
  relative viability: 0.361
NCI-H661; first compound 6.325 µM
  relative viability: 0.363
NCI-H661; first compound 20 µM
  relative viability: 0.285
NCI-H2085; first compound 0.2 µM
  relative viability: 0.781
NCI-H2085; first compound 0.6325 µM
  relative viability: 0.755
NCI-H2085; first compound 2 µM
  relative viability: 0.763
NCI-H2085; first compound 6.325 µM
  relative viability: 0.598
NCI-H2085; first compound 20 µM
  relative viability: 0.533
NCI-H1666; first compound 0.2 µM
  relative viability: 0.618
NCI-H1666; first compound 0.6325 µM
  relative viability: 0.625
NCI-H1666; first compound 2 µM
  relative viability: 0.575
NCI-H1666; first compound 6.325 µM
  relative viability: 0.47
NCI-H1666; first compound 20 µM
  relative viability: 0.446
SW 900; first compound 0.2 µM
  relative viability: 0.657
SW 900; first compound 0.6325 µM
  relative viability: 0.722
SW 900; first compound 2 µM
  relative viability: 0.495
SW 900; first compound 6.325 µM
  relative viability: 0.528
SW 900; first compound 20 µM
  relative viability: 0.183
NCI-H727; first compound 0.2 µM
  relative viability: 0.513
NCI-H727; first compound 0.6325 µM
  relative viability: 0.536
NCI-H727; first compound 2 µM
  relative viability: 0.592
NCI-H727; first compound 6.325 µM
  relative viability: 0.574
NCI-H727; first compound 20 µM
  relative viability: 0.506
BEN; first compound 0.2 µM
  relative viability: 0.549
BEN; first compound 0.6325 µM
  relative viability: 0.438
BEN; first compound 2 µM
  relative viability: 0.498
BEN; first compound 6.325 µM
  relative viability: 0.482
BEN; first compound 20 µM
  relative viability: 0.346
NCI-H596; first compound 0.2 µM
  relative viability: 0.929
NCI-H596; first compound 0.6325 µM
  relative viability: 0.931
NCI-H596; first compound 2 µM
  relative viability: 0.817
NCI-H596; first compound 6.325 µM
  relative viability: 0.872
NCI-H596; first compound 20 µM
  relative viability: 0.782
NCI-H1975; first compound 0.2 µM
  relative viability: 0.643
NCI-H1975; first compound 0.6325 µM
  relative viability: 0.807
NCI-H1975; first compound 2 µM
  relative viability: 0.699
NCI-H1975; first compound 6.325 µM
  relative viability: 0.338
NCI-H1975; first compound 20 µM
  relative viability: 0.254
RERF-LC-KJ; first compound 0.2 µM
  relative viability: 0.507
RERF-LC-KJ; first compound 0.6325 µM
  relative viability: 0.503
RERF-LC-KJ; first compound 2 µM
  relative viability: 0.317
RERF-LC-KJ; first compound 6.325 µM
  relative viability: 0.231
RERF-LC-KJ; first compound 20 µM
  relative viability: 0.224
CAL-12T; first compound 0.2 µM
  relative viability: 0.244
CAL-12T; first compound 0.6325 µM
  relative viability: 0.254
CAL-12T; first compound 2 µM
  relative viability: 0.303
CAL-12T; first compound 6.325 µM
  relative viability: 0.206
CAL-12T; first compound 20 µM
  relative viability: 0.204
A-427; first compound 0.2 µM
  relative viability: 0.266
A-427; first compound 2 µM
  relative viability: 0.202
A-427; first compound 6.325 µM
  relative viability: 0.249
A-427; first compound 20 µM
  relative viability: 0.164
NCI-H520; first compound 0.2 µM
  relative viability: 0.55
NCI-H520; first compound 0.6325 µM
  relative viability: 0.419
NCI-H520; first compound 2 µM
  relative viability: 0.463
NCI-H520; first compound 6.325 µM
  relative viability: 0.428
NCI-H520; first compound 20 µM
  relative viability: 0.375
HARA; first compound 0.2 µM
  relative viability: 0.101
HARA; first compound 2 µM
  relative viability: 0.0957
HARA; first compound 6.325 µM
  relative viability: 0.112
HARA; first compound 20 µM
  relative viability: 0.0634
LOU-NH91; first compound 0.2 µM
  relative viability: 0.65
LOU-NH91; first compound 0.6325 µM
  relative viability: 0.657
LOU-NH91; first compound 2 µM
  relative viability: 0.51
LOU-NH91; first compound 6.325 µM
  relative viability: 0.581
LOU-NH91; first compound 20 µM
  relative viability: 0.225
NCI-H460; first compound 0.2 µM
  relative viability: 0.447
NCI-H460; first compound 0.6325 µM
  relative viability: 0.499
NCI-H460; first compound 2 µM
  relative viability: 0.149
NCI-H460; first compound 20 µM
  relative viability: 0.0359
NCI-H647; first compound 0.2 µM
  relative viability: 0.262
NCI-H647; first compound 0.6325 µM
  relative viability: 0.27
NCI-H647; first compound 6.325 µM
  relative viability: 0.247
NCI-H647; first compound 20 µM
  relative viability: 0.11
NCI-H1734; first compound 0.2 µM
  relative viability: 0.226
NCI-H1734; first compound 0.6325 µM
  relative viability: 0.261
NCI-H1734; first compound 2 µM
  relative viability: 0.256
NCI-H1734; first compound 6.325 µM
  relative viability: 0.169
NCI-H1734; first compound 20 µM
  relative viability: 0.124
NCI-H2126; first compound 0.2 µM
  relative viability: 0.831
NCI-H2126; first compound 0.6325 µM
  relative viability: 0.832
NCI-H2126; first compound 2 µM
  relative viability: 0.846
NCI-H2126; first compound 6.325 µM
  relative viability: 0.738
NCI-H2126; first compound 20 µM
  relative viability: 0.403
NCI-H1651; first compound 0.2 µM
  relative viability: 0.601
NCI-H1651; first compound 0.6325 µM
  relative viability: 0.689
NCI-H1651; first compound 2 µM
  relative viability: 0.565
NCI-H1651; first compound 6.325 µM
  relative viability: 0.607
NCI-H1651; first compound 20 µM
  relative viability: 0.503
